# In US10800792B2, “Inhibitors of Bruton's tyrosine kinase and method of their use” (JANSSEN PHARMACEUTICA NV, priority 2015, dated 2020):
# Target: unphosphorylated-BTK kinase domain (UP-BTK), GST-tagged human BTK (389-659aa) (Homo sapiens (Human), UniProt Q06187)
# Assay: BTK kinase Lanthascreen binding assay
# Conditions: Lanthascreen tracer competition, 60 minutes incubation; pIC50 = negative log of the IC50 in molar
# How it was run: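 Lanthascreen competition binding; test compound vs fluorescent tracer on unphosphorylated BTK. Output: pIC50 (−log IC50, M).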
# Chain of unphosphorylated-BTK kinase domain (UP-BTK), GST-tagged human BTK (389-659aa) (Q06187 389-659): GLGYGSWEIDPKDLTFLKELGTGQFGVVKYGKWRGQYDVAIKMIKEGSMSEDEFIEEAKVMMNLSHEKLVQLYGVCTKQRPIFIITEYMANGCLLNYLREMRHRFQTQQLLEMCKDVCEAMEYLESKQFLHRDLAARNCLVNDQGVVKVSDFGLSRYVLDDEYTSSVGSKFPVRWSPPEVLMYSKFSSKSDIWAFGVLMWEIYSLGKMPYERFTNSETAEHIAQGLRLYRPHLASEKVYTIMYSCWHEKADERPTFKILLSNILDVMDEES
row,BTK_I_binding pIC50,Compound
1,7.6,"CCC(=O)N1CC[C@@H](NC(=O)c2sc3nccc4c3c2NC(=O)N4c2ccc(Oc3ccccc3)cc2C)C1 [Example 843, (R)-5-(2-Methyl-4-phenoxyphenyl)-4-oxo-N-(1-propionylpyrrolidin-3-yl)-4,5-dihydro-3H-1-thia-3,5,8-triazaacenaphthylene-2-carboxamide]"
2,7.6,"Cc1cc(Oc2ccccc2)ccc1N1C(=O)Nc2c(C(=O)N[C@@H]3CCCN(C(=O)[C@H]4CCN4)C3)sc3nccc1c23 [Example 849, N—((R)-1-((R)-Azetidine-2-carbonyl)piperidin-3-yl)-5-(2-methyl-4-phenoxyphenyl)-4-oxo-4,5-dihydro-3H-1-thia-3,5,8-triazaacenaphthylene-2-carboxamide]"
3,6.1,"C=CC(=O)N1CC[C@@H](NC(=O)c2sc3nccc4c3c2NC(=O)N4c2cnc(Oc3ccccc3)nc2C)C1 (single isomer, unassigned) [Example 724, (R)—N-(1-Acryloylpyrrolidin-3-yl)-5-(*R)-(4-methyl-2-phenoxypyrimidin-5-yl)-4-oxo-4,5-dihydro-3H-1-thia-3,5,8-triazaacenaphthylene-2-carboxamide]"

# The next lines start with the compound.
row,Compound,BTK_I_binding pIC50
1,"CCC(=O)N1CCC[C@@H](NC(=O)c2sc3nccc4c3c2NC(=O)N4c2ccc(Oc3ccccn3)cc2)C1 [Example 807, (R)-4-Oxo-N-(1-propionylpiperidin-3-yl)-5-(4-(pyridin-2-yloxy)phenyl)-4,5-dihydro-3H-1-thia-3,5,8-triazaacenaphthylene-2-carboxamide]",<6
2,"Cc1ccc(OC(C)C)cc1N1C(=O)Nc2c(C(=O)N[C@@H]3CCCNC3)sc3nccc1c23 [Example 644, (R)-5-(5-Isopropoxy-2-methylphenyl)-4-oxo-N-(piperidin-3-yl)-4,5-dihydro-3H-1-thia-3,5,8-triazaacenaphthylene-2-carboxamide]",<5

# Same assay, conditions: pIC50 = negative log of the IC50 in molar; 60 minutes incubation, 50 nM Tracer 236
row,Compound,BTK_I_binding pIC50
1,"Cc1cc(Oc2ccccc2)ccc1N1C(=O)Nc2c(C(=O)N[C@@H]3CCCN(C(=O)/C(C#N)=C/C4(N)CC4)C3)sc3nccc1c23 [Example 196, (R,E)-N-(1-(3-(1-Aminocyclopropyl)-2-cyanoacryloyl)piperidin-3-yl)-5-(2-methyl-4-phenoxyphenyl)-4-oxo-4,5-dihydro-3H-1-thia-3,5,8-triazaacenaphthylene-2-carboxamide]",6.8
2,"C/C=C(\F)C(=O)N1CCC[C@@H](NC(=O)c2sc3nccc4c3c2NC(=O)N4c2ccc(Oc3ccccc3)cc2C)C1 [Example 261, (R,Z)—N-(1-(2-Fluorobut-2-enol)piperidin-3-yl)-5-(2-methyl-4-phenoxyphenyl)-4-oxo-4,5-dihydro-3H-1-thia-3,5,8-triazaacenaphthylene-2-carboxamide]",6.5

# Same assay, conditions: unphosphorylated-BTK kinase domain, 50 nM Tracer 236, 60 minutes; pIC50 = negative log of the IC50 in molar
row,Compound,BTK_I_binding pIC50
1,"O=C(N[C@@H]1CCCNC1)c1sc2nccc3c2c1NC(=O)N3c1cccc(Cl)c1 [Example 336, (R)-5-(3-Chlorophenyl)-4-oxo-N-(piperidin-3-yl)-4,5-dihydro-3H-1-thia-3,5,8-triazaacenaphthylene-2-carboxamide]",5.4
2,"CC(=O)N/C=C\C(=O)N1CCC[C@@H](NC(=O)c2sc3nccc4c3c2NC(=O)N4c2ccc(Oc3ccccc3)cc2C)C1 [Example 364, (R,Z)—N-(1-(3-Acetamidoacryloyl)piperidin-3-yl)-5-(2-methyl-4-phenoxyphenyl)-4-oxo-4,5-dihydro-3H-1-thia-3,5,8-triazaacenaphthylene-2-carboxamide]",6.8
3,"Cc1cc(Oc2ccccc2)c(F)cc1N1C(=O)Nc2c(C(=O)N[C@@H]3CCCOC3)sc3nccc1c23 [Example 305, (R)-5-(5-Fluoro-2-methyl-4-phenoxyphenyl)-4-oxo-N-(tetrahydro-2H-pyran-3-yl)-4,5-dihydro-3H-1-thia-3,5,8-triazaacenaphthylene-2-carboxamide]",6.0
4,"O=C(NCC1CCNC1)c1sc2nccc3c2c1NC(=O)N3c1ccc(Oc2ccccc2)cc1 (centres unmarked) [Example 453, 4-Oxo-5-(4-phenoxyphenyl)-N-(pyrrolidin-3-ylmethyl)-4,5-dihydro-3H-1-thia-3,5,8-triazaacenaphthylene-2-carboxamide]",6.4
